Measurements as given in US20230265151A1, “GIP/GLP1 CO-AGONIST COMPOUNDS” (priority 2020, published 2023).
Where two headings read alike, the source gives them in different places.

Experiments:
Format in all cases: cell-based
[1] = biological target: hGLP-1R (Homo sapiens, UniProt P43220); assay: Functional cAMP formation (HTRF) in HEK-293 clonal cells expressing hGLP-1R, 0.1% bovine casein, without or with 1.0% human serum albumin; design: expressed in transfected cells; settings: 37° C.; for Emax: read-out: hGLP-1R Emax, % ± SEM; for EC50: cAMP, read-out: hGLP-1R EC50, nM (SEM, n)
How it was run: (§1)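 Cells were stimulated with peptide for 30 min at 37° C, then lysed in buffer carrying cAMP-d2 and anti-cAMP Eu3+-cryptate for a competitive HTRF read after at least 60 min at room temperature. The 665/620 nm ratio was converted to nM cAMP against a standard curve.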

[2] = biological target: T1, hGCGR (Homo sapiens, UniProt P47871); assay: Functional cAMP formation (HTRF) in HEK-293 clonal cells expressing hGCGR, 0.1% bovine casein, without or with 1.0% human serum albumin; settings: read-out: hGCGR EC50, nM (SEM, n)
T1 construct: expressed in transfected cells
How it was run: as §1

[3] = biological target: T2, hGIPR (Homo sapiens, UniProt P48546); assay: Functional cAMP formation (HTRF) in HEK-293 clonal cells expressing hGIPR, 0.1% bovine casein, without or with 1.0% human serum albumin; settings: for Emax: read-out: hGIPR Emax, % ± SEM; for EC50: cAMP, 0.1% bovine casein (no human serum albumin), geometric mean, read-out: hGIPR EC50, nM (SEM, n)
T2 construct: expressed in transfected cells
T2 sequence (P48546 22-466): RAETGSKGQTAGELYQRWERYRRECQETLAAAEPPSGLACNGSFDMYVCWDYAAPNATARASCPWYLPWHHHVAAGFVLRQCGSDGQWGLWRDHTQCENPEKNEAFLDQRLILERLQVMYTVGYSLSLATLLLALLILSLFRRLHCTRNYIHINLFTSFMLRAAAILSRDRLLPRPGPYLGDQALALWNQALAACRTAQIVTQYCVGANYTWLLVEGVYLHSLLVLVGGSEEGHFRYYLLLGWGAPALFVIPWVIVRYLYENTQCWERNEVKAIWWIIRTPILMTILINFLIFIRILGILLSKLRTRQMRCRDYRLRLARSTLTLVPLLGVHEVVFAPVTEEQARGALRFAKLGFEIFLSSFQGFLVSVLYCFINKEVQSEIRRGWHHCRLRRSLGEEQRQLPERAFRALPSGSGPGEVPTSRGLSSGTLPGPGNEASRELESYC
How it was run: as §1

hGLP-1R, sequence (P43220 24-463): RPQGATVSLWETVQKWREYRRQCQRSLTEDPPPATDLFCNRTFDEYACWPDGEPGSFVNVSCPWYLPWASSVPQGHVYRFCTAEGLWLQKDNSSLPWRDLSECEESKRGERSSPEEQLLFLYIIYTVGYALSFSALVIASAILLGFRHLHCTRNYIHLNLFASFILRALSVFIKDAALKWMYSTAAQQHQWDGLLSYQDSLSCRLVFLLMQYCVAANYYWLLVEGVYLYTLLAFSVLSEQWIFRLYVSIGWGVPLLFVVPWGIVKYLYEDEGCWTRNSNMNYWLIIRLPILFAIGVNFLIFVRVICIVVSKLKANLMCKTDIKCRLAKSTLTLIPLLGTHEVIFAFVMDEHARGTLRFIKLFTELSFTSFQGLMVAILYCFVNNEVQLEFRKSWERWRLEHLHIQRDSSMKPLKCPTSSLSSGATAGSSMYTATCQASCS
T1 sequence (P47871 26-477): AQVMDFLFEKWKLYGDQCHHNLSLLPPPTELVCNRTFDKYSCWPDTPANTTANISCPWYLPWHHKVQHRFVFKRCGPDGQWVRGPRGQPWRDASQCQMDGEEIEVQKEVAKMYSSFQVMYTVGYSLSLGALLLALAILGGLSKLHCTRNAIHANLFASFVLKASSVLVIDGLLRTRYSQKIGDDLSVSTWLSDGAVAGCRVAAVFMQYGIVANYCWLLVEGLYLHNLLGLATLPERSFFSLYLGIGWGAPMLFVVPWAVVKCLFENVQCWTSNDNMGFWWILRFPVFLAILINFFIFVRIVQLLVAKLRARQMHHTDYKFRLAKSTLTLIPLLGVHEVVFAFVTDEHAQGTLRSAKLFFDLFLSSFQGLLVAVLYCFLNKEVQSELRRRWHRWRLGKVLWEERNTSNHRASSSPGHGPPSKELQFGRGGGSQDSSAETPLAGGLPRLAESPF

| Compound | Emax ([1]; HEK293, cAMP, 0.1% bovine casein, percent of maximal response to GLP-1(7-36)NH2, arithmetic mean) [%] | EC50 ([1]; 0.1% bovine casein (no human serum albumin), geometric mean) [nM] | EC50 ([1]; 0.1% bovine casein and 1.0% human serum albumin, geometric mean (SEM, n)) [nM] | EC50 ([2]; cAMP, 37° C., 0.1% bovine casein (no human serum albumin), geometric mean) [nM] | EC50 ([2]; cAMP, 37° C., 0.1% bovine casein and 1.0% human serum albumin, geometric mean (SEM, n)) [nM] | Emax ([3]; HEK293, cAMP, 37° C., 0.1% bovine casein and 1.0% human serum albumin, percent of maximal response to GIP(1-42)NH2) [%] | EC50 ([3]; 37° C.) [nM] | Emax ([1]; HEK293, 0.1% bovine casein and 1.0% human serum albumin, percent of maximal response to GLP-1(7-36)NH2) [%] | Emax ([1]; HEK293, percent of maximal response to GLP-1(7-36)NH2, 0.1% bovine casein, arithmetic mean) [%] | EC50 ([2]; 0.1% bovine casein and 1.0% human serum albumin, 37° C., geometric mean) [nM] | EC50 ([2]; cAMP, incubated at 37° C., 0.1% bovine casein (no human serum albumin), geometric mean) [nM] | Emax ([3]; HEK293, 0.1% bovine casein and 1.0% human serum albumin, 37° C., percent of maximal response to GIP(1-42)NH2) [%] | Emax ([3]; HEK293, percent of maximal response to GIP(1-42)NH2, 37° C., 0.1% bovine casein, arithmetic mean) [%] | EC50 ([3]; incubated at 37° C.) [nM] |
| --- | --- | --- | --- | --- | --- | --- | --- | --- | --- | --- | --- | --- | --- | --- |
| CCCCCCCCCCCC(=O)N[C@@H](CCC(=O)NCCOCCOCC(=O)NCCOCCOCC(=O)NCCCC[C@H](NC(=O)[C@H](CCCN)NC(=O)[C@H](CC(=O)O)NC(=O)[C@H](CC(C)C)NC(=O)[C@](C)(CC(C)C)NC(=O)[C@@H](NC(=O)C(C)(C)NC(=O)[C@H](CCCCNC(=O)COCCOCCNC(=O)COCCOCCNC(=O)CC[C@H](NC(=O)CCCCCCCCCCC)C(=O)O)NC(=O)[C@H](CC(=O)O)NC(=O)[C@H](CO)NC(=O)[C@@H](NC(=O)[C@](C)(Cc1ccccc1F)NC(=O)[C@@H](NC(=O)CNC(=O)[C@H](CCC(=O)O)NC(=O)C(C)(C)NC(=O)[C@@H](N)Cc1ccc(O)cc1)[C@@H](C)O)[C@@H](C)O)[C@@H](C)CC)C(=O)N[C@@H](C)C(=O)N[C@@H](CCC(N)=O)C(=O)NC(C)(C)C(=O)N[C@@H](CCC(=O)O)C(=O)N[C@@](C)(Cc1ccccc1)C(=O)N[C@H](C(=O)N[C@H](CCC(=O)O)C(=O)N[C@@](C)(Cc1ccc(O)cc1)C(=O)N[C@@H](CC(C)C)C(=O)N[C@H](C(=O)N[C@@H](CCC(=O)O)C(=O)NCC(=O)NCC(=O)N1CCC[C@H]1C(=O)N[C@@H](CO)C(=O)N[C@@H](CO)C(=O)NCC(=O)N[C@@H](C)C(=O)N1CCC[C@H]1C(=O)N1CCC[C@H]1C(=O)N1CCC[C@H]1C(=O)N[C@@H](CO)C(N)=O)[C@@H](C)CC)[C@@H](C)CC)C(=O)O [Example 429] | 116 | 0.116 | 17.3 | > 9950 | > 9950 | 93.3 | 0.00799 | – | – | – | – | – | – | – |
| CC[C@H](C)[C@H](NC(=O)[C@H](CC(C)C)NC(=O)[C@](C)(Cc1ccc(O)cc1)NC(=O)[C@@H](CCC(=O)O)NC(=O)[C@@H](NC(=O)[C@H](Cc1ccccc1Cl)NC(=O)[C@H](CCC(=O)O)NC(=O)C(C)(C)NC(=O)[C@H](CCC(N)=O)NC(=O)[C@H](C)NC(=O)[C@H](CCCCNC(=O)COCCOCCNC(=O)COCCOCCNC(=O)CC[C@H](NC(=O)CCCCCCCCCCCCC(=O)O)C(=O)O)NC(=O)[C@H](CCCN)NC(=O)[C@H](CC(=O)O)NC(=O)[C@H](CC(C)C)NC(=O)[C@](C)(CC(C)C)NC(=O)[C@@H](NC(=O)[C@H](CO)NC(=O)[C@H](Cc1ccncc1)NC(=O)[C@H](CC(=O)O)NC(=O)[C@H](CO)NC(=O)[C@@H](NC(=O)[C@](C)(Cc1ccccc1F)NC(=O)[C@@H](NC(=O)CNC(=O)[C@H](CCC(=O)O)NC(=O)C(C)(C)NC(=O)[C@@H](N)Cc1ccc(O)cc1)[C@@H](C)O)[C@@H](C)O)[C@@H](C)CC)[C@@H](C)CC)C(=O)N[C@@H](CCC(=O)O)C(=O)NCC(=O)NCC(=O)N[C@@H](CCCCNC(=O)COCCOCCNC(=O)COCCOCCNC(=O)CC[C@H](NC(=O)CCCCCCCCCCCCC(=O)O)C(=O)O)C(=O)N[C@@H](CO)C(=O)N[C@@H](CO)C(=O)NCC(=O)N[C@@H](C)C(=O)N1CCC[C@H]1C(=O)N1CCC[C@H]1C(=O)N1CCC[C@H]1C(=O)N[C@@H](CO)C(N)=O [Example 61] | – | – | – | – | – | – | – | 89.7 | 82.9 | > 9950 | > 9950 | 92.8 | 88.2 | 0.012 |
